Where two headings read alike, the source gives them in different places.
How the values were obtained:
B16F10 melanoma = assay: Primary B16F10 melanoma tumor in mice; type: in vivo; settings: C57BL/6 mice, IV on day 14, 16, 18; FIG. 2A/2B
Protocol: Female 6-8 week old C57BL/6 mice were injected intradermally on day 0 with 50 μl of 3.75×10^4 viable B16F10 melanoma cells from ATCC (source of cell culture, Dr. I. J. Fidler). On day 14, tumors reached […] and animals were randomized for treatments. Animals were then injected IV with saline (negative control) or compound (5 mg/kg, 25 mg/kg, or 50 mg/kg) on day 14, day 16, and day 18 or 10 mg/kg doxorubicin (positive control) on day 14. Mice were sacrificed on day 29. Body weight and tumor volume were recorded. Serial tumor volume was obtained by bi-dimensional diameter measurements with calipers, using the formula 0.4 (a×b^2) where “a” was the major tumor diameter and “b” the minor perpendicular diameter. An antitumor effect can be quantitated by T/C, which is calculated as (Treated tumor volume/Control tumor volume)×100%.

[1] = tested on: P815 murine mastocytoma cell; assay: MTT cytotoxicity on P815; type: cell-based; settings: Mus musculus
Protocol: (§1) This assay was performed to determine the effect of compounds of the present invention on cell cytotoxicity. Cells were incubated in presence or absence of compounds in their respective conditioned media. After 24 hr or 72 hr incubation, 50 μl of 3-(4,5-dimethyl-2-thiazyl)-2,5-diphenyl-2H-tetrazolium bromide (MTT; 2 mg/ml) was added and further incubated for 4 hr. The supernatant was discarded and 100 μl of dimethylsulfoxide (DMSO) was added. Absorbance was read at 570 nm with a TecanSunrise ELISA plate reader. The control group consisted of cells without compounds and is referred to as 100% of viable cells. IC50 was determined using Prism software.
(§2) All compounds have weak effect on cell cytotoxicity. The predictive utility of cell based cytotoxicity assays to assess the potential in vivo anticancer activity of compounds with selected cancer cell lines is well established in the art and the use of whole cells, instead of isolated protein receptors or enzymes, provides a more reliable determination of activity. See, for example, Paull et al. (J. Nat'l Cancer Inst. 81:1088-1092, 1989); Monks et al. (J. Nat'l Cancer Inst. 83:757-766, 1991); Bandes et al. (J. Nat'l Cancer Inst. 86:770-775, 1994); and Kamate et al. (Int'l J. Cancer 100:571-579, 2002).

[2] = tested on: peripheral blood mononuclear leukocytes (PBML); assay: PBML protein synthesis ([3H]-leucine); type: cell-based; settings: Homo sapiens, Leukocyte, 48 hr
Text: (§3) PBML were obtained from the peripheral blood of healthy volunteers. Blood was submitted to gradient centrifugation with Lympholyte-Poly media (Cedarlane, Hornby, Canada). The layer containing the mononuclear leukocytes was collected and the cells washed three times in PBS. Cells were then suspended in RPMI (Gibco, Burlington, Canada) supplemented with 10% FBS (Hyclone, Logan USA). Viability was greater than 99% as determined by trypan blue exclusion.
(§4) PBML were resuspended at 2×10^6 cells/ml. 100 μl of PBML (2×10^5 cells) were incubated in a 96-well microtiter plate for 48 hr in the presence or absence of compound. Cells were quiescent or stimulated with concanavalin A (con A; T-cells) or pokeweed mitogen (PWM; B-cells). After incubation, cells were treated with MTT (cytotoxicity) or pulsed with 1 μCi of [^3H]-thymidine (DNA synthesis), [^3H]-uridine (RNA synthesis), or [^3H]-leucine (protein synthesis) for 6 hr. Plates were harvested on a Tomteck and counted on a Microbeta β-counter.

[3] = tested on: peripheral blood mononuclear leukocytes (PBML); assay: PBML RNA synthesis ([3H]-uridine); type: cell-based; settings: Homo sapiens, Leukocyte, 48 hr
Text: as §3, §4

[4] = tested on: NHDF (normal human dermal fibroblast); assay: MTT cytotoxicity on NHDF; type: cell-based
Protocol: as §1, §2

[5] = tested on: oxazolone-induced delayed-type hypersensitivity (DTH); assay: Oxazolone-induced delayed-type hypersensitivity (DTH) in mice; type: in vivo
Protocol: Compounds were tested for their ability to treat oxazolone-induced delayed-type hypersensitivity (DTH) in mice. […] On day 0, day 1, and day 2, mice were treated by intravenous (IV) or oral (PO) administrations of the vehicle (control) or methotrexate (MTX; positive control/IV) or hydrocortisone (positive control/PO) or the compound at concentration lower than or equal to 50 mg/kg or as specified. Mice were challenged with an application of 50 μl of oxazolone on the surface of the right ear (first challenge, day 3; second challenge, day 10). Ear thickness was measured on day 4 to day 7, and on day 11 to 14. Redness and crust formation was also observed. Mice were sacrificed on day 14. TDTH (CD4) cells play an important role in regulating the intensity of the DTH response. Compounds may exert an inhibitory influence on the DTH response through its inhibition of T-cell activation and DNA, RNA, and/or protein synthesis.

TNFα = TNFα (Homo sapiens, UniProt P01375); assay: TNFα-induced apoptosis in WEHI-13VAR cell line; type: cell-based; settings: for inhibition at 10 µM: 1 × 10^−5 M; for inhibition at 20 µM: 2 × 10^−5 M; for inhibition at 40 µM: 4 × 10^−5 M; for inhibition at 5 µM: 5 × 10^−6 M
Chain of TNFα (P01375 77-233 limits assumed, species assumed): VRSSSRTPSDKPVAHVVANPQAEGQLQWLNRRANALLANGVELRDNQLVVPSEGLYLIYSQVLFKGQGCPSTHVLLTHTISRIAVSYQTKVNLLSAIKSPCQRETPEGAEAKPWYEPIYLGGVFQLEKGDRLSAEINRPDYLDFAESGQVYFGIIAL
Protocol: Effect of compounds on TNFα-induced apoptosis was measured by a standard biological assay using WEHI-13VAR cells. These cells undergo apoptosis when they are incubated in the presence of TNFα and actinomycin D. 2×10^4 WEHI-13VAR cells were incubated in RPMI supplemented with 1% sodium pyruvate and 10% FBS, overnight at 37° C. for cell adherence. The cells were then cultured in the presence of 1 μg/ml of actimomycin D ([…]) and 0.04 nM TNFα with or without compounds at 37° C. After 16 hr to 24 hr, 50 μl of a solution of 2 mg/ml of MIT was added to each well and the plate was then incubated for 4 hr at 37° C. Only viable cells metabolize MTT to form formazan salt, which is detectable by the measurement of absorbance at 570 nm. After the incubation, the plate was inverted to remove medium and dead cells. 150 μDMSO was added to each well to stop the reaction and solubilize the formazan salt. Optical density was read on a Bio-Tek EL 800 UV microplate reader. A decrease in the optical density is direct evidence of cell apoptosis induced by TNFα. Compounds were also compared to the activity of an anti-TNFα neutralizing antibody.

[6] = tested on: peripheral blood mononuclear leukocytes (PBML); assay: PBML DNA synthesis ([3H]-thymidine); type: cell-based; settings: Homo sapiens, Leukocyte, 48 hr
Text: as §3, §4

[7] = 24 hr culture, read-out: IC50 of 24-hour culture P815
[8] = 72 hr culture, read-out: IC50 of 72-hour culture P815
[9] = PWM stimulated PBML, read-out: Protein Synthesis PWM
[10] = con A stimulated PBML, read-out: Protein Synthesis Con A
[11] = resting PBML, read-out: Protein Synthesis Resting
[12] = PWM stimulated PBML, read-out: RNA Synthesis PWM
[13] = resting PBML, read-out: RNA Synthesis Resting
[14] = 24 hr culture, read-out: IC50 of 24-hour culture NHDF
[15] = 72 hr culture, read-out: IC50 of 72-hour culture NHDF
[16] = PWM stimulated PBML, read-out: DNA Synthesis PWM
[17] = con A stimulated PBML, read-out: DNA Synthesis Con A
[18] = resting PBML, read-out: DNA Synthesis Resting

Structure (SMILES)	T/C (treated/control tumor volume) (B16F10 melanoma)	IC50 [1, 7] [µM]	IC50 [1, 8] [µM]	IC50 [2, 9] [µM]	IC50 [2, 10] [µM]	IC50 [2, 11] [µM]	IC50 [3, 12] [µM]	IC50 [3, 13] [µM]	IC50 [4, 14] [µM]	IC50 [4, 15] [µM]	inhibition at 10 µM (TNFα) [%]	inhibition at 20 µM (TNFα) [%]	inhibition at 40 µM (TNFα) [%]	inhibition at 5 µM (TNFα) [%]	IC50 [6, 16] [µM]	IC50 [6, 17] [µM]	IC50 [6, 18] [µM]	other results
NCCCCCNc1nc(NCCc2ccc(O)cc2)nc(Nc2ccc(F)cc2)n1 [Compound V]	< 40%	23.5	7.5	> 10	> 10	> 10	4.5	7.4	78.6	45.8	22.2	51.9	75.9	8.2	6.1	8	> 10	IC50 ([3]; con A stimulated PBML, read-out: RNA Synthesis Con A): 6 µM; inflammation (ear thickness) after DTH ([5]; oral 50 mg/kg, FIG. 15): significant reduction of the inflammation
NCCCCCNc1nc(NCCc2ccc(O)cc2)nc(Nc2cccc(F)c2)n1 [Compound I]	around 80%	34	4	9.9	4.4	> 10	2.2	6.8	56.8	16.3	33.1	58.9		17.9	2.8	3.7	> 10	inflammation (ear thickness) after DTH ([5]; IV 25 mg/kg, first challenge of oxazolone): significant reduction of the inflammation; inflammation (ear thickness) after DTH ([5]; IV 25 mg/kg, second challenge of oxazolone): significant reduction of the inflammation
NCCCCCNc1nc(NCCc2ccc(S(N)(=O)=O)cc2)nc(Nc2cccc(F)c2)n1 [Compound II]	around 80%	66.5	1.6	5.7	6.4	> 10	1.1	5.8	> 100	28.6	64.2	83.8	78.9	45.2	1.7	2.9	> 10	inflammation (ear thickness) after DTH ([5]; IV 5 mg/kg, first challenge of oxazolone): significant reduction of the inflammation; inflammation (ear thickness) after DTH ([5]; IV 5 mg/kg, second challenge of oxazolone): significant reduction of the inflammation
